Source: PubChem BioAssay AID192 (DTP/NCI, 2004)
Several values for one entry are separate records, joined by “and”; a condition that tells them apart may be missing. Identical values can stand only once. Inconclusive results and toxic doses are left out.

System: BDF1 mice, B16 melanoma ip, median survival T/C
Experiment: NCI In Vivo Anticancer Drug Screen. Data for tumor model B16 Melanoma (intraperitoneal) in B6D2F1 (BDF1) mice
Conditions: endpoint: median survival time, higher = longer survival
Method in brief: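 Each result divides a survival or tumor-size measurement in the compound-treated group by the same measurement in the vehicle group.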

[1] = dose: 12.5 mg/kg/injection, schedule: Q01DX009 (ip), vehicle: saline with Tween-80
[2] = dose: 50.0 mg/kg/injection, schedule: Q01DX009 (ip), vehicle: saline with Tween-80
[3] = dose: 100.0 mg/kg/injection, schedule: Q01DX009 (ip), vehicle: Klucel (hydroxypropylcellulose) (HPC)
[4] = dose: 200.0 mg/kg/injection, schedule: Q01DX009 (ip), vehicle: Klucel (hydroxypropylcellulose) (HPC)
[5] = dose: 400.0 mg/kg/injection, schedule: Q01DX009 (ip), vehicle: Klucel (hydroxypropylcellulose) (HPC)
[6] = dose: 25.0 mg/kg/injection, schedule: Q01DX009 (ip), vehicle: Klucel (hydroxypropylcellulose) (HPC)
[7] = dose: 50.0 mg/kg/injection, schedule: Q01DX009 (ip), vehicle: Klucel (hydroxypropylcellulose) (HPC)
[8] = dose: 2.0 mg/kg/injection, schedule: Q01DX009 (ip), vehicle: saline
[9] = dose: 12.5 mg/kg/injection, schedule: Q01DX009 (ip), vehicle: Klucel (hydroxypropylcellulose) (HPC)
[10] = dose: 25.0 mg/kg/injection, schedule: Q01DX009 (ip), vehicle: saline with Tween-80
[11] = dose: 100.0 mg/kg/injection, schedule: Q01DX009 (ip), vehicle: saline with Tween-80
[12] = dose: 50.0 mg/kg/injection, schedule: Q01DX009 (ip), vehicle: saline

SMILES: C1#CCCCCCC#CCCCC1
- T/C [1]: 89 % of control
- T/C (dose: 12.5 mg/kg/injection, schedule: Q04DX003 (ip), vehicle: saline with Tween-80): 91 % of control
- T/C (dose: 25.0 mg/kg/injection, schedule: Q04DX003 (ip), vehicle: saline with Tween-80): 97 % of control
- T/C [2]: 100 % of control
- T/C (dose: 50.0 mg/kg/injection, schedule: Q04DX003 (ip), vehicle: saline with Tween-80): 89 % of control and 94 % of control

SMILES: CC(C)[S][Pb]([c]1ccccc1)([c]1ccccc1)[c]1ccccc1
- T/C (dose: 0.3 mg/kg/injection, schedule: Q01DX009 (ip), vehicle: gum acacia): 97 % of control
- T/C (dose: 0.6 mg/kg/injection, schedule: Q01DX009 (ip), vehicle: gum acacia): 91 % of control
- T/C (dose: 1.25 mg/kg/injection, schedule: Q01DX009 (ip), vehicle: gum acacia): 89 % of control

SMILES: C/C(=N\O)C(=O)c1ccccc1
- T/C [3]: 100 % of control
- T/C [4]: 100 % of control
- T/C [5]: 103 % of control

SMILES: C=CCNCC(O)c1ccccc1 (stereo unspecified)
- T/C [6]: 103 % of control
- T/C [7]: 106 % of control
- T/C [3]: 109 % of control

SMILES: C=C1C(=O)OC2CC(C)C3(O)CCC(C)(CC(OC(=O)C(C)C)C12)O3 (stereo unspecified)
- T/C [7]: 99 % of control
- T/C [3]: 97 % of control
- T/C [4]: 98 % of control

SMILES: O=C1C(N2CCOCC2)=C(N2CC2)C(=O)C(N2CCOCC2)=C1N1CC1
- T/C (dose: 0.75 mg/kg/injection, schedule: Q01DX009 (ip), vehicle: saline): 118 % of control
- T/C (dose: 1.5 mg/kg/injection, schedule: Q01DX009 (ip), vehicle: saline): 124 % of control
- T/C (dose: 3.0 mg/kg/injection, schedule: Q01DX009 (ip), vehicle: saline): 120 % of control
- T/C (dose: 6.0 mg/kg/injection, schedule: Q01DX009 (ip), vehicle: saline): 106 % of control

SMILES: [Cl][Ni+2][Cl].[NH-]CCN1CC1
- T/C (dose: 0.78 mg/kg/injection, schedule: Q01DX009 (ip), vehicle: saline): 97 % of control
- T/C (dose: 1.56 mg/kg/injection, schedule: Q01DX009 (ip), vehicle: saline): 97 % of control
- T/C (dose: 3.12 mg/kg/injection, schedule: Q01DX009 (ip), vehicle: saline): 90 % of control

SMILES: CC[C@H]1CN2CCc3cc(OC)c(OC)cc3[C@@H]2C[C@@H]1C[C@H]1NCCc2cc(O)c(OC)cc21
- T/C (dose: 2.0 mg/kg/injection, schedule: Q01DX009 (ip), vehicle: saline + alcohol): 118 % of control
- T/C [8]: 108 % of control and 120 % of control
- T/C (dose: 8.0 mg/kg/injection, schedule: Q01DX009 (ip), vehicle: saline + alcohol): 113 % of control
- T/C (dose: 8.0 mg/kg/injection, schedule: Q04DX003 (ip), vehicle: alkali diluted with saline): 117 % of control
- T/C (dose: 16.0 mg/kg/injection, schedule: Q04DX003 (ip), vehicle: alkali diluted with saline): 108 % of control
- T/C (dose: 32.0 mg/kg/injection, schedule: Q04DX003 (ip), vehicle: alkali diluted with saline): 122 % of control

SMILES: c1ccc(C2c3ccccc3C(c3ccccc3)(c3ccccc3)c3ccccc32)cc1
- T/C [9]: 87 % of control
- T/C [6]: 101 % of control
- T/C [7]: 97 % of control
- T/C [3]: 86 % of control

SMILES: CNC(=O)Nc1nccs1
- T/C [10]: 97 % of control
- T/C [2]: 95 % of control
- T/C [11]: 106 % of control
- T/C (dose: 200.0 mg/kg/injection, schedule: Q01DX009 (ip), vehicle: saline with Tween-80): 91 % of control

SMILES: COc1cc2c(cc1OC)C1CC(=O)C(CC(C)C)CN1CC2 (stereo unspecified)
- T/C (dose: 6.25 mg/kg/injection, schedule: Q01DX009 (ip), vehicle: Klucel (hydroxypropylcellulose) (HPC)): 100 % of control
- T/C [6]: 100 % of control
- T/C [7]: 95 % of control
- T/C [3]: 97 % of control

SMILES: CNC(=O)Oc1coc(CCl)cc1=O
- T/C (dose: 12.0 mg/kg/injection, schedule: Q01DX009 (ip), vehicle: Klucel (hydroxypropylcellulose) (HPC)): 93 % of control
- T/C (dose: 18.0 mg/kg/injection, schedule: Q01DX009 (ip), vehicle: Klucel (hydroxypropylcellulose) (HPC)): 96 % of control
- T/C (dose: 27.0 mg/kg/injection, schedule: Q01DX009 (ip), vehicle: Klucel (hydroxypropylcellulose) (HPC)): 96 % of control
- T/C (dose: 40.0 mg/kg/injection, schedule: Q01DX009 (ip), vehicle: Klucel (hydroxypropylcellulose) (HPC)): 106 % of control

SMILES: CC1(CCl)OCCO1
- T/C [7]: 96 % of control
- T/C [3]: 100 % of control
- T/C [4]: 100 % of control

SMILES: C[C@]12CC[C@H](O)C[C@@]1(O)CC[C@@H]1[C@@H]2CC[C@]2(C)[C@@H](c3ccc(=O)oc3)CC[C@]12O
- T/C (dose: 1.25 mg/kg/injection, schedule: Q01DX009 (ip), vehicle: Klucel (hydroxypropylcellulose) (HPC)): 94 % of control
- T/C (dose: 2.5 mg/kg/injection, schedule: Q01DX009 (ip), vehicle: Klucel (hydroxypropylcellulose) (HPC)): 92 % of control
- T/C (dose: 5.0 mg/kg/injection, schedule: Q01DX009 (ip), vehicle: Klucel (hydroxypropylcellulose) (HPC)): 92 % of control
- T/C (dose: 10.0 mg/kg/injection, schedule: Q01DX009 (ip), vehicle: Klucel (hydroxypropylcellulose) (HPC)): 94 % of control
- T/C [1]: 96 % of control
- T/C (dose: 20.0 mg/kg/injection, schedule: Q01DX009 (ip), vehicle: Klucel (hydroxypropylcellulose) (HPC)): 94 % of control
- T/C [10]: 94 % of control
- T/C [2]: 92 % of control

SMILES: Cc1c(N)nc(C(CC(N)=O)NCC(N)C(N)=O)nc1C(=O)NC(C(=O)NC(C)C(O)C(C)C(=O)NC(C(=O)NCCc1nc(-c2nc(C(=O)NCCCNC(C)c3ccccc3)cs2)cs1)C(C)O)C(OC1OC(CO)C(O)C(O)C1OC1OC(CO)C(O)C(OC(N)=O)C1O)c1cnc[nH]1 (stereo unspecified)
- T/C (dose: 0.25 mg/kg/injection, schedule: Q01DX009 (ip), vehicle: saline): 105 % of control
- T/C (dose: 0.5 mg/kg/injection, schedule: Q01DX009 (ip), vehicle: saline): 102 % of control
- T/C (dose: 1.0 mg/kg/injection, schedule: Q01DX009 (ip), vehicle: saline): 106 % of control
- T/C [8]: 110 % of control
- T/C (dose: 4.0 mg/kg/injection, schedule: Q01DX009 (ip), vehicle: saline): 108 % of control
- T/C (dose: 8.0 mg/kg/injection, schedule: Q01DX009 (ip), vehicle: saline): 111 % of control

SMILES: CCCC/C=C/CCCCCCCC(=O)OCCCCCCCCCCCCCCCC
- T/C [1]: 100 % of control
- T/C [10]: 101 % of control
- T/C [2]: 94 % of control
- T/C [11]: 94 % of control

SMILES: NNC(=O)c1ccc(Cl)cc1Cl
- T/C [9]: 100 % of control
- T/C (dose: 12.5 mg/kg/injection, schedule: Q04DX003 (ip), vehicle: Klucel (hydroxypropylcellulose) (HPC)): 103 % of control
- T/C [6]: 86 % of control
- T/C (dose: 25.0 mg/kg/injection, schedule: Q04DX003 (ip), vehicle: Klucel (hydroxypropylcellulose) (HPC)): 93 % of control

SMILES: O=C(Nc1ccccc1)c1ccc(Cl)c([N+](=O)[O-])c1
- T/C [10]: 113 % of control
- T/C [2]: 111 % of control
- T/C [11]: 106 % of control

SMILES: CC(Cc1ccccc1)NC(=O)/C=C/C(=O)O (stereo unspecified)
- T/C [3]: 95 % of control
- T/C [4]: 91 % of control
- T/C [5]: 89 % of control

SMILES: CC(=O)C1(O)Cc2c(O)c3c(c(O)c2C(OC2CC(N)C(O)C(C)O2)C1)C(=O)c1ccccc1C3=O (stereo unspecified)
- T/C (dose: 0.16 mg/kg/injection, schedule: Q01DX001 (ip), vehicle: water): 117 % of control
- T/C (dose: 0.31 mg/kg/injection, schedule: Q01DX001 (ip), vehicle: water): 121 % of control
- T/C (dose: 0.63 mg/kg/injection, schedule: Q01DX001 (ip), vehicle: water): 123 % of control
- T/C (dose: 1200.0 micrograms/kg/injection, schedule: Q04DX003 (ip), vehicle: water): 94 % of control

SMILES: Nc1ccc(-c2c(N)ncc3ccccc23)cc1
- T/C [1]: 101 % of control
- T/C [10]: 104 % of control
- T/C [2]: 103 % of control

SMILES: CCCCCCCCC(=O)CCCCCC
- T/C [3]: 100 % of control
- T/C [4]: 96 % of control
- T/C [5]: 104 % of control

SMILES: C[C@@H]1CC[C@@]2(NC1)O[C@H]1C[C@H]3[C@@H]4CC=C5C[C@@H](O)CC[C@]5(C)[C@H]4CC[C@]3(C)[C@H]1[C@@H]2C
- T/C [9]: 95 % of control

SMILES: CC(N)(Cc1ccc(O)c(O)c1)C(=O)O (stereo unspecified)
- T/C [12]: 115 % of control
- T/C (dose: 100.0 mg/kg/injection, schedule: Q01DX009 (ip), vehicle: saline): 100 % of control
- T/C (dose: 200.0 mg/kg/injection, schedule: Q01DX009 (ip), vehicle: saline): 107 % of control
- T/C (dose: 400.0 mg/kg/injection, schedule: Q01DX009 (ip), vehicle: saline): 110 % of control

SMILES: COc1cccc2c1C(=O)c1c(O)c3c(c(O)c1C2=O)C[C@@](O)(C(C)=O)C[C@@H]3OC1CC(NC(C)=O)C(O)C(C)O1 (stereo partly specified)
- T/C (dose: 6.25 mg/kg/injection, schedule: Q01DX009 (ip), vehicle: saline): 169 % of control
- T/C (dose: 12.5 mg/kg/injection, schedule: Q01DX009 (ip), vehicle: saline): 198 % of control
- T/C (dose: 25.0 mg/kg/injection, schedule: Q01DX009 (ip), vehicle: saline): 308 % of control
- T/C [12]: 227 % of control
